Experimental data as given in patent US6127360A, “Diamine derivatives and pharmaceutical containing the same” (Kowa Co., Ltd., priority 1997, dated 2000).

Tests used:
[1] = target: T1, isolated guinea pig ileum (Cavia porcellus, UniProt Q2NNR5); assay: Anti-LTD4 action on isolated guinea pig ileum (LTD4 contraction); type: cell-based; settings: 10^-5 M test compound; contraction caused by 10^-8 M LTD4; read-out: Anti-LTD4 action (inhibition rate)
T1 construct: An isolated guinea pig ileum was cut into about 2 cm lengths; from tissue; host or cells: guinea pig ileum
T1 sequence (Q2NNR5 1-340): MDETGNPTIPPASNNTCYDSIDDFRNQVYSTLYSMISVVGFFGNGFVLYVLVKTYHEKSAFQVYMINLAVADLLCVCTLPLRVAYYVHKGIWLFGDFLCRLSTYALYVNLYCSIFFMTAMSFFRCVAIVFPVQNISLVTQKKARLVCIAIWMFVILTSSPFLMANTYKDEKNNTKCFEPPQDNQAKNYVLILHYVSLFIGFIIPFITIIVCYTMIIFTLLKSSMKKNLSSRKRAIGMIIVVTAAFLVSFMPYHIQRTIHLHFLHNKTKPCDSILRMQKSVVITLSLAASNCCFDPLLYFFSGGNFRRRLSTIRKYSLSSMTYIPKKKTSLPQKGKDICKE
Description: Antihistaminic Action and Anti-LTD4 Action (In vitro Tests)
An isolated guinea pig ileum was cut into about 2 cm lengths. Each ileum piece was suspended in a 20-ml container filled with the Tyrode's buffer. An isotonic contractive response by histamine or LTD4 was recorded on a recorder. The Tyrode's buffer was controlled at 30° C., through which a mixed gas (95%O2 -5%CO2) was bubbled.

H1 receptor = target: T2, H1 receptor (Cavia porcellus, UniProt P31389); assay: H1 Receptor Binding Inhibition Test ([3H]mepyramin, guinea pig cerebromembranous protein); settings: read-out: H1 receptor dissociation constant (KD)
T2 construct: guinea pig cerebromembranous protein and a test compound; from tissue; host or cells: guinea pig brain membranes
Description: H1 Receptor Binding Inhibition Test
An ice-cold phosphate buffer was added to terminate the reaction, followed by immediate filtration through a Wattman CF/C filter. The filter was washed twice with 20 ml aliquots of the ice-cold buffer. The radio-activity of the residue was measured by a liquid scintillation counter. From a measurement value obtained without the addition of the test compound and measurements values obtained upon addition of the test compound at various concentrations, the dose-response of the inhibitory action of the test compound was measured and the 50% inhibitory concentration (IC50) was determined. Using the Cheng-Prusoff formula, a dissociation constant (KD) was calculated from the 50% inhibitory concentration (IC50).
In a binding assay, 10^4 M R(-)dimethindene was used for the measurement of a nonspecific binding.

LTD4 receptor = target: T3, LTD4 receptor (Cavia porcellus, UniProt Q2NNR5); assay: LTD4 Receptor Binding Inhibition Test ([3H]LTD4, guinea pig pulmomembranous protein); settings: read-out: LTD4 receptor dissociation constant (KD)
T3 construct: guinea pig pulm-omembranous protein and a test compound; from tissue; host or cells: guinea pig lung membranes
T3 sequence (Q2NNR5 1-340): T1 sequence (Q2NNR5 1-340)
Description: LTD4 Receptor Binding Inhibition Test
An ice-cold tris hydrochloride/sodium chloride buffer (10 mM/100 mM, pH 7.5) was added to terminate the reaction, followed by immediate filtration through a Wattman CF/C filter. The filter was washed twice with 20 ml aliquots of the ice-cold buffer. The radioactivity of the residue was measured by a liquid scintillation counter.
In a binding assay, […] LTD4 was used for the measurement of a nonspecific binding.

H1 = target: T4, H1 (Mus musculus, UniProt P70174); assay: Brain Penetration Test (ex vivo [3H]mepyramin binding in mouse brain); settings: ip; for ED50: peritoneal administration to mouse, brain taken 1 hour after, [3H]mepyramin 0.5 nM, read-out: IC50 (50% inhibitory dose), ex vivo; for selectivity ratio at 1 h: mouse, brain, IC50 (mg/kg)/H1 binding inhibition dissociation constant (nM), read-out: BP index
T4 construct: from tissue; host or cells: mouse brain homogenate, ex vivo after intraperitoneal dosing
Description: Described specifically, to a mouse of 20 g to 23 g, a test compound of a given concentration was peritoneally administered. Upon elapsed time of one hour after the administration, the mouse was sacrificed. The brain tissue was taken out, and was then homogenated with a 30 mM Na,K phosphate buffer (pH 7.5) to give 40 ml/g wet weight. […] Subsequent to incubation at 37° C. for 50 minutes, an ice-cold phosphate buffer was added to terminate the reaction. Each of the resulting mixtures was immediately filtered through Wattman CF/C filter. The filter was washed twice with 20 ml aliquots of the ice-cold buffer. The radioactivity of the residue was measured by a liquid scintillation counter. […] A BP index as an index of brain penetration was calculated in accordance with the following formula:
BP index=IC50 (mg/kg)/H1 binding inhibition dissociation constant (nM)

T4 sequence (P70174 whole entry): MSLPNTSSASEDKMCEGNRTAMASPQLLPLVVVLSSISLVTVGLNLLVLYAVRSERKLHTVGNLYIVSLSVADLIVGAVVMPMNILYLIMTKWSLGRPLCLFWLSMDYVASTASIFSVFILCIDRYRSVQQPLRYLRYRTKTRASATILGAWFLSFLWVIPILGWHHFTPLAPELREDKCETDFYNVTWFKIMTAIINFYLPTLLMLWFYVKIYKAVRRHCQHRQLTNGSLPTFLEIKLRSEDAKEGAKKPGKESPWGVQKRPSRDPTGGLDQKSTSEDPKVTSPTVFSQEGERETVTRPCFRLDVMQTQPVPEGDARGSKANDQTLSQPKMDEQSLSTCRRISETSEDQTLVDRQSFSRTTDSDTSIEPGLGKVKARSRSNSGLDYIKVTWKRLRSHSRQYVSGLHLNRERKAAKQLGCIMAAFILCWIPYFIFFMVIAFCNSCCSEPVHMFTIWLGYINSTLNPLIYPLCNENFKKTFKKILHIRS
T2 sequence (P31389 whole entry): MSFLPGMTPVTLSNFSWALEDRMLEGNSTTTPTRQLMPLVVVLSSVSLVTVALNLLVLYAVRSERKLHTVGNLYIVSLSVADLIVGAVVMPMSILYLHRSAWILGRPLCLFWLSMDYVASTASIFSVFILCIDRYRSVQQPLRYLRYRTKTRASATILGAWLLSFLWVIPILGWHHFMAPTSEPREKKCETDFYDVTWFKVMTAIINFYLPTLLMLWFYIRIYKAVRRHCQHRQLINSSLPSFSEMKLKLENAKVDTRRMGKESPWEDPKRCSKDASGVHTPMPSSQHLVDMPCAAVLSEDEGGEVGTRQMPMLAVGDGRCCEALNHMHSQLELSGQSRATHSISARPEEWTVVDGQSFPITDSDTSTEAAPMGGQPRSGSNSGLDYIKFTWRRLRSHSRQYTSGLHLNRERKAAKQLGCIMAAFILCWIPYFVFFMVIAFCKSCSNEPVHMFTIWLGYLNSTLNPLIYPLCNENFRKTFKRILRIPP

SMILES	inhibition at 10 µM [1]	Ki (H1 receptor)	Ki (LTD4 receptor)	ED50 (H1)	selectivity ratio at 1 h (H1)
O=C1CSc2cc(OCCCN3CCN(Cc4ccc5ccccc5n4)CC3)ccc2N1 [Example 90, 7-{3-[4-(2-quinolylmethyl)piperazinyl]propoxy}-3,4-dihydro-2H-1,4-benzothiazin-3-one]	16%	5.01 nM	9410 nM	8.5 mg/kg	1.7
Cc1ccc(OCCCN2CCN(Cc3ccc4ccccc4n3)CC2)c2c1NC(=O)CC2 [Example 91, 8-methyl-5-{3-[4-(2-quinolylmethyl)piperazinyl]propoxy}-1,2,3,4-tetrahydroquinolin-2-one]				10 mg/kg	35.7
Cc1ccc(OCCCN2CCN(Cc3ccc4ccccc4n3)CC2)c2c1NC(=O)C2(C)C [Example 92]	42%	55.7 nM	4230 nM	16.5 mg/kg	0.29
